Laboratory results: patent publication US10494384B2, “Urea peptoid boric acid compound, pharmaceutical composition thereof, preparation method therefor, and uses thereof” (Peking University, priority 2015, dated 2019)
Like-named read-outs stand apart in the source and are kept apart here.

Legend:
[1] = tested on: BGC-823, liver cancer; assay: preliminary anti-tumor screening in vitro, SRB method; type: cell-based; conditions: Homo sapiens, read-out: inhibition rates (%) BGC-823
Description: (§1) The test methods used in this test example are routine methods for anti-tumor activities test in pharmaceutical area, for example, referring to the following reference: (J. Immunol Method, 1983, 65, 55).
(§2) Test models: A: MTT method (Hela, human cervical carcinoma); B: SRB method (BGC-823, […]); C: SRB method (MCF-7, breast cancer); D: SRB method (A549, human lung cancer); E: SRB method (PC3M1E8, prostate cancer).
(§3) Inhibition rates of the compounds were measured under concentrations of 0.1 μM, 1 μM or 10 μM.

[2] = tested on: A549, human lung cancer; assay: as above; type: cell-based; conditions: read-out: inhibition rates (%) A549
Description: as §1, §2, §3

[3] = tested on: MCF-7, breast cancer; assay: as above; type: cell-based; conditions: Homo sapiens, read-out: inhibition rates (%) MCF-7; for inhibition at 0.1 µM: MCF7, 0.1 μM; for inhibition at 1 µM: MCF7, 1 μM; for inhibition at 10 µM: MCF7, 10 μM
Description: as §1, §2, §3

[4] = tested on: Hela, human cervical carcinoma; assay: preliminary anti-tumor screening in vitro, MTT method; type: cell-based; conditions: read-out: inhibition rates (%) Hela
Description: as §1, §2, §3

[5] = biological target: T1, 20S proteasome extracted from rat liver (PGPH) (Rattus norvegicus, UniProt P28073+Q9JHW0); assay: inhibition of 20S proteasome, PGPH activity (fluorescent peptide); type: biochemical; conditions: for inhibition at 0.2 µM / inhibition at 2 µM / inhibition at 20 µM: rat liver 20S proteasome, 37° C., 1 h, read-out: inhibition rates (%) PGPH
T1 construct: 20S proteasome extracted from rat liver; from tissue; host or cells: rat liver
Description: (§4) 1 μg of 20S proteasome extracted from rat liver was incubated with a 100 μL solution containing various concentrations of the present compounds, 50 μM fluorescent peptides and 20 mM Tris-HCl at 37° C. for 1 h, respectively. […] 0.1% DMSO was used as a solvent control. Compared with the fluorescence of solvent control, an inhibition rate or IC50 value was calculated.

[6] = biological target: T2, 20S proteasome extracted from rat liver (CT-L) (Rattus norvegicus, UniProt P18421+P28075); assay: inhibition of 20S proteasome, CT-L activity (fluorescent peptide); type: biochemical; conditions: for inhibition at 0.2 µM / inhibition at 2 µM / inhibition at 20 µM: rat liver 20S proteasome, 37° C., 1 h, read-out: inhibition rates (%) CT-L
T2 construct: 20S proteasome extracted from rat liver; from tissue; host or cells: rat liver
Description: as §4

[7] = biological target: T3, 20S proteasome extracted from rat liver (T-L) (Rattus norvegicus, UniProt P40112+Q9JHW0); assay: inhibition of 20S proteasome, T-L activity (fluorescent peptide); type: biochemical; conditions: for inhibition at 0.2 µM / inhibition at 2 µM / inhibition at 20 µM: 37° C., 1 h, read-out: inhibition rates (%) T-L
T3 construct: 20S proteasome extracted from rat liver; from tissue; host or cells: rat liver
Description: as §4

inhibition at 0.2 µM [5] [%] | inhibition at 2 µM [5] [%] | inhibition at 20 µM [5] [%] | inhibition at 0.2 µM [6] [%] | inhibition at 2 µM [6] [%] | SMILES | inhibition at 0.1 µM [1] [%] | inhibition at 1 µM [1] [%] | inhibition at 10 µM [1] [%] | inhibition at 0.1 µM [2] [%] | inhibition at 1 µM [2] [%] | inhibition at 10 µM [2] [%] | inhibition at 0.1 µM [3] [%] | inhibition at 1 µM [3] [%] | inhibition at 10 µM [3] [%] | inhibition at 0.1 µM [4] [%] | inhibition at 1 µM [4] [%] | inhibition at 10 µM [4] [%] | IC50 [5] [nM] | IC50 [6] [nM] | IC50 [7] [µM] | further results
40.9 | 87.9 | 96.6 | 33.8 | 86.8 | COc1ccc(CNC(=O)[C@H](Cc2ccccc2)NC(=O)N[C@@H](CC(C)C)B(O)O)cc1 [Example 1, N-L-leucine borate-N′-(p-methoxy-benzylcarbamoyl)-L-phenylalanine-urea] | 7.79 | 14.9 | 32 | 1.44 | 35.3 | 50.2 | 1 | 7.46 | 22.9 | 8.67 | 28 | 38.5 |  |  |  | inhibition at 20 µM [6]: 93.6%; inhibition at 0.2 µM ([7]; rat liver 20S proteasome): -6.55%; inhibition at 2 µM ([7]; rat liver 20S proteasome): 22.8%; inhibition at 20 µM ([7]; rat liver 20S proteasome): 35.5%
 |  |  |  |  | CC(C)C[C@H](NC(=O)[C@H](Cc1ccccc1)NC(=O)NCc1cnccn1)B(O)O [Example 2, N-L-phenylalanyl-L-leucine borate-N′-pyrazin-2-ylmethylamine-urea] |  |  |  |  |  |  |  |  |  |  |  |  | 790 | 50 | 11.4 | 
7.38 | 40.8 | 88.4 | -20.8 | 1.91 | CC(C)C[C@H](NC(=O)N[C@@H](Cc1ccccc1)C(=O)NCC1CCCO1)B(O)O (stereo partly drawn) [Example 3, N-L-leucine borate-N′-(tetrahydrofuran-2-ylmethylcarbamoyl)-L-phenylalanine-urea] | 4.73 | -4.01 | 0.96 | 5.55 | 16.6 | 14.9 | 3.24 | 9.52 | 9.37 | 10.2 | 14.2 | 19.2 |  |  |  | inhibition at 20 µM [6]: 68.6%; inhibition at 0.2 µM ([7]; rat liver 20S proteasome): 16.9%; inhibition at 2 µM ([7]; rat liver 20S proteasome): 18.5%; inhibition at 20 µM ([7]; rat liver 20S proteasome): 35.9%
2.03 | 2.19 | 62.7 | -14.2 | 10.4 | CC(C)C[C@H](NC(=O)N[C@@H](Cc1ccccc1)C(=O)Nc1cccc(OCc2ccccc2)c1)B(O)O [Example 4, N-L-leucine borate-N′-(3-benzyloxy-phenylcarbamoyl)-L-phenylalanine-urea] | 6.67 | 4.64 | 13.1 | 6.4 | 16.2 | 31.1 | 6.46 | 9.07 | 9.93 | 9.59 | 11.3 | 25.4 |  |  |  | inhibition at 20 µM [6]: 77.7%; inhibition at 0.2 µM ([7]; rat liver 20S proteasome): 6.92%; inhibition at 2 µM ([7]; rat liver 20S proteasome): 4.38%; inhibition at 20 µM ([7]; rat liver 20S proteasome): 36.2%
17.4 | 66.3 | 93.8 | -0.67 | 44.7 | CC(C)C[C@H](NC(=O)N[C@@H](Cc1ccccc1)C(=O)Nc1cnccn1)B(O)O [Example 6, N-L-leucine borate-N′-(pyrazin-2-ylcarbamoyl)-L-phenylalanine-urea] | 4.88 | 4.4 | 8.98 | -6.94 | -3.91 | 7.01 | 0.8 | 1.9 | 6.05 | 1.74 | 4.43 | 16.9 |  |  |  | inhibition at 20 µM [6]: 86.8%; inhibition at 0.2 µM ([7]; rat liver 20S proteasome): -3.92%; inhibition at 2 µM ([7]; rat liver 20S proteasome): 2.41%; inhibition at 20 µM ([7]; rat liver 20S proteasome): 27.2%
1.62 | 7.36 | 63.1 | 2.87 | 59.7 | COc1ccc(NC(=O)[C@H](Cc2ccccc2)NC(=O)N[C@@H](CC(C)C)B(O)O)cc1 [Example 8, N-L-leucine borate-N′-(p-methoxy-phenylcarbamoyl)-L-phenylalanine-urea] | 4.74 | 5.62 | 15.6 | 1.01 | 8.26 | 39.2 | 4.54 | 8.51 | 16.4 | 12.7 | 13.4 | 32.9 |  |  |  | inhibition at 20 µM [6]: 89.4%; inhibition at 0.2 µM ([7]; rat liver 20S proteasome): -1.39%; inhibition at 2 µM ([7]; rat liver 20S proteasome): 9.32%; inhibition at 20 µM ([7]; rat liver 20S proteasome): 30.6%
19 | 79.8 | 96 | -4.19 | 47.8 | CC(C)C[C@H](NC(=O)N[C@H](Cc1ccccc1)C(=O)Nc1cnccn1)B(O)O [Example 10, N-L-leucine borate-N′-(pyrazin-2-ylcarbamoyl)-D-phenylalanine-urea] | 4.44 | 7.38 | 16.4 | 3.45 | 14.6 | 25 | 8.1 | 12.7 | 16 | 11.8 | 14.8 | 27 |  |  |  | inhibition at 20 µM [6]: 89%; inhibition at 0.2 µM ([7]; rat liver 20S proteasome): -12.3%; inhibition at 2 µM ([7]; rat liver 20S proteasome): -5.93%; inhibition at 20 µM ([7]; rat liver 20S proteasome): 17.4%
 |  |  |  |  | CC(C)C[C@H](NC(=O)[C@H](Cc1ccccc1)NC(=O)NCCc1ccccc1)B(O)O [Example 25, N-L-phenylalanyl-L-leucine borate-N′-phenylethylamine-urea] |  |  |  |  |  |  |  |  |  |  |  |  | 240 | 20 | 1.05 | 
 |  |  |  |  | CC(C)C[C@H](NC(=O)[C@H](Cc1ccccc1)NC(=O)N(C)Cc1ccccc1)B(O)O [Example 29, N-L-phenylalanyl-L-leucine borate-N′—(N-methyl-benzylamine)-urea] |  |  |  |  |  |  |  |  |  |  |  |  |  | 2 | 0.19 | 
 |  |  |  |  | Cc1cccc(CNC(=O)N[C@@H](Cc2ccccc2)C(=O)N[C@@H](CC(C)C)B(O)O)c1C [Example 30, N-L-phenylalanyl-L-leucine borate-N′-2,3-dimethyl-benzylamine-urea] |  |  |  |  |  |  |  |  |  |  |  |  | 130 | 4 | 0.34 | 
 |  |  |  |  | CC(C)C[C@H](NC(=O)[C@H](Cc1ccccc1)NC(=O)NCc1cc(Cl)ccc1Cl)B(O)O [Example 31, N-L-phenylalanyl-L-leucine borate-N′-2,5-dichloro-benzylamine-urea] |  |  |  |  |  |  |  |  |  |  |  |  | 480 | 40 | 0.53 | 
 |  |  |  |  | CC(C)C[C@H](NC(=O)[C@H](Cc1ccccc1)NC(=O)NCc1ccco1)B(O)O [Example 33, N-L-phenylalanyl-L-leucine borate-N′-furan-2-ylmethylamine-urea] |  |  |  |  |  |  |  |  |  |  |  |  | 80 | 20 | 5.32 | 
 |  |  |  |  | CC(C)C[C@H](NC(=O)[C@H](Cc1ccccc1)NC(=O)NCc1cccc([N+](=O)[O-])c1)B(O)O [Example 36, N-L-phenylalanyl-L-leucine borate-N′-3-nitro-benzylamine-urea] |  |  |  |  |  |  |  |  |  |  |  |  | 140 | 3 | 0.19 | 
 |  |  |  |  | CC(C)C[C@H](NC(=O)[C@H](Cc1ccccc1)NC(=O)N1CCc2ccccc2C1=O)B(O)O [Example 37, N-(1-oxo-1,2,3,4-dihydroisoquinolin-2-ylformyl)-L-phenylalanyl-L-leucine borate] |  |  |  |  |  |  |  |  |  |  |  |  | 1240 | 660 |  | IC50 ([7]; rat liver 20S proteasome, read-out: IC50 (μM) T-L): > 20 µM
